Publication PMC7827406, “Structure–Activity Relationship (SAR) Study of Spautin-1 to Entail the Discovery of Novel NEK4 Inhibitors” (International Journal of Molecular Sciences, 2021)
Like-named read-outs stand apart in the source and are kept apart here.

Key:
Test in all cases: biochemical
Set-up in all cases: Eurofins KinaseProfiler full panel at Km ATP, residual kinase activity (%) relative to DMSO
Wee1(h) = Wee1(h) (Homo sapiens, UniProt P30291)
Outline: (§1)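 Radiometric kinase activity assays were run with ATP at Km and compounds at 10 µM, and remaining activity (%) was reported. A separate competitive binding screen measured DNA-tagged kinase displaced from immobilized active-site ligands by qPCR, giving percent kinase still bound at 10 µM compound in DMSO.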

GSK3β(h) = biological target: T1, GSK3β(h) (Homo sapiens, UniProt P49841)
T1 construct: gene GSK3B
Outline: as §1

ZAK(h) = biological target: T2, ZAK(h) (Homo sapiens, UniProt Q9NYL2)
T2 construct: gene MAP3K20
Outline: as §1

CK1α(h) = biological target: T3, CK1α(h) (Homo sapiens, UniProt P48729)
T3 construct: gene CSNK1A1
Outline: as §1

IRE1(h) = biological target: T4, IRE1(h) (Homo sapiens, UniProt O75460)
T4 construct: gene ERN1
Outline: as §1

BrSK2(h) = biological target: T5, BrSK2(h) (Homo sapiens, UniProt Q8IWQ3)
T5 sequence (Q8IWQ3 1-736): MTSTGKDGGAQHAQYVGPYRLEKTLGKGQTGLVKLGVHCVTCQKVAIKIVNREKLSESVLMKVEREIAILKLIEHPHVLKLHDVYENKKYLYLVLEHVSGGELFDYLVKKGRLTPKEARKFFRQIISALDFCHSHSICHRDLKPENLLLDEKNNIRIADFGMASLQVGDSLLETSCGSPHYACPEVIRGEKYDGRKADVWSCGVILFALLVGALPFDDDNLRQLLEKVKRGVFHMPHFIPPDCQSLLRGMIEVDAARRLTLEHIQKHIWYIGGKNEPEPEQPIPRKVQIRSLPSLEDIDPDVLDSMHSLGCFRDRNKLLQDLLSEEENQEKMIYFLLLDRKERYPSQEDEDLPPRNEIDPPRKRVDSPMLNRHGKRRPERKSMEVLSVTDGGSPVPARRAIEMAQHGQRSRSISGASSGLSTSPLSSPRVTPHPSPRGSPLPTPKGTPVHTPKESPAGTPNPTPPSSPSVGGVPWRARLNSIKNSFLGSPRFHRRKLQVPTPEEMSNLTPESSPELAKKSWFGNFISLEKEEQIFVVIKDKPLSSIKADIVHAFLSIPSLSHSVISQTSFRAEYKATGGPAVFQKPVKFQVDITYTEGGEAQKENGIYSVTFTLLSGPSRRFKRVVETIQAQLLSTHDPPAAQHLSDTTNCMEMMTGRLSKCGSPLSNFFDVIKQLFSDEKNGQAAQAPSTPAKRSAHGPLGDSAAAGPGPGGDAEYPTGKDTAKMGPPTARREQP
Outline: as §1

PKD2(h) = biological target: T6, PKD2(h) (Homo sapiens, UniProt Q9BZL6)
T6 construct: gene PRKD2
T6 sequence (Q9BZL6 1-878): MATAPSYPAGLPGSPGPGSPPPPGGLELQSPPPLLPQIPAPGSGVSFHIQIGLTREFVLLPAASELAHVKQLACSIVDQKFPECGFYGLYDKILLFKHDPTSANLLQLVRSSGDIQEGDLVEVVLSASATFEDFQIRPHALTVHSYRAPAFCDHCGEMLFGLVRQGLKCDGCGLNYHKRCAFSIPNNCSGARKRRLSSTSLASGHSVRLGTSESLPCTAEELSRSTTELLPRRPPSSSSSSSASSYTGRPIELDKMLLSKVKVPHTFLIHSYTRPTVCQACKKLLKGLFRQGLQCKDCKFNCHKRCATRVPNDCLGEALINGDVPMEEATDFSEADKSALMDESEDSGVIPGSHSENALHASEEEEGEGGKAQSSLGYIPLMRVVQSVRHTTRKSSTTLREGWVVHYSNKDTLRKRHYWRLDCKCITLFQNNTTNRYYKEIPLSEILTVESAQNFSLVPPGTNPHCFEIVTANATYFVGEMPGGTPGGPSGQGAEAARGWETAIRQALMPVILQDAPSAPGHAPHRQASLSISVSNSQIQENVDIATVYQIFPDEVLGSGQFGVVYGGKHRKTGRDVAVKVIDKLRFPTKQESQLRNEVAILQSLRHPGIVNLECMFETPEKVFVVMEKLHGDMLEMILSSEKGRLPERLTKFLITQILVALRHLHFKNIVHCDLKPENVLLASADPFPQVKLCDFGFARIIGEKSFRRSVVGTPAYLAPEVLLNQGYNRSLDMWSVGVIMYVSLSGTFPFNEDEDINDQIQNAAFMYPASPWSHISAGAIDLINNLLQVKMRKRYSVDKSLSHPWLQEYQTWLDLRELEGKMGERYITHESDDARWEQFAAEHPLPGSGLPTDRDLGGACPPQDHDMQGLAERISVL
Outline: as §1

Src(1-530)(h) = biological target: T7, Src(1-530)(h) (Homo sapiens, UniProt P12931)
T7 construct: residues 1-530
Outline: as §1

[1] = biological target: T8, PI3 Kinase (p110b/p85a)(m) (Mus musculus, UniProt Q8BTI9)
T8 construct: gene Pik3cb
Outline: as §1

[2] = read-out: Residual activity (%) 5ay
[3] = read-out: Residual activity (%) Spautin-1 5aa
[4] = read-out: Residual activity (%) 5at
[5] = read-out: Residual activity (%) 5as

T8 sequence (Q8BTI9 whole entry): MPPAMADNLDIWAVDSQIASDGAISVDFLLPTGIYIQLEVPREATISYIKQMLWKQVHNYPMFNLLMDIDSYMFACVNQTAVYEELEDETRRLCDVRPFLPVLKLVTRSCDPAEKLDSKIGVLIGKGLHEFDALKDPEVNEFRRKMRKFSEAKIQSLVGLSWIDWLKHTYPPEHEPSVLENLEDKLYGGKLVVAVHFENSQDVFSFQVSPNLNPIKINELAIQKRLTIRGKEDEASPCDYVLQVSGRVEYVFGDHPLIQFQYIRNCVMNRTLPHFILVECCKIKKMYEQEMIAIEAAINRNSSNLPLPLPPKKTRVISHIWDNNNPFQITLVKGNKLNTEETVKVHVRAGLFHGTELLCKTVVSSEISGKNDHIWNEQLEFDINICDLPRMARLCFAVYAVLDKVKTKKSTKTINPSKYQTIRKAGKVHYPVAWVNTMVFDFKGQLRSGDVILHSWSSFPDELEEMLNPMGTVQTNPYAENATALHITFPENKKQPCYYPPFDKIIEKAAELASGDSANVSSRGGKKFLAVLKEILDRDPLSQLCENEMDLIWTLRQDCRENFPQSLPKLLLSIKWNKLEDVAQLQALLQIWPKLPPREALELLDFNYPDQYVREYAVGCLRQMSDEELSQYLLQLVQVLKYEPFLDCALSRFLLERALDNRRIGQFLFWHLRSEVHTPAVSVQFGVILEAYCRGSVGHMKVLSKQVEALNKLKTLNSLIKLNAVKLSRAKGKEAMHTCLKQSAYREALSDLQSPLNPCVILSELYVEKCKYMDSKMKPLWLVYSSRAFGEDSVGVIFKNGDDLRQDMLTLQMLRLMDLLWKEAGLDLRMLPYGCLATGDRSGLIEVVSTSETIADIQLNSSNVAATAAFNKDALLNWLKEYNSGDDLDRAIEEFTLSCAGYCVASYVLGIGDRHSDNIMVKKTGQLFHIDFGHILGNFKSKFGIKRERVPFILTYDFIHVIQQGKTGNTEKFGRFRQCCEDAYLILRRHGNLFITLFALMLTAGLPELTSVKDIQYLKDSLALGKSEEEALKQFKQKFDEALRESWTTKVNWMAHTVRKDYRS
T8 sequence (P26450 whole entry partner): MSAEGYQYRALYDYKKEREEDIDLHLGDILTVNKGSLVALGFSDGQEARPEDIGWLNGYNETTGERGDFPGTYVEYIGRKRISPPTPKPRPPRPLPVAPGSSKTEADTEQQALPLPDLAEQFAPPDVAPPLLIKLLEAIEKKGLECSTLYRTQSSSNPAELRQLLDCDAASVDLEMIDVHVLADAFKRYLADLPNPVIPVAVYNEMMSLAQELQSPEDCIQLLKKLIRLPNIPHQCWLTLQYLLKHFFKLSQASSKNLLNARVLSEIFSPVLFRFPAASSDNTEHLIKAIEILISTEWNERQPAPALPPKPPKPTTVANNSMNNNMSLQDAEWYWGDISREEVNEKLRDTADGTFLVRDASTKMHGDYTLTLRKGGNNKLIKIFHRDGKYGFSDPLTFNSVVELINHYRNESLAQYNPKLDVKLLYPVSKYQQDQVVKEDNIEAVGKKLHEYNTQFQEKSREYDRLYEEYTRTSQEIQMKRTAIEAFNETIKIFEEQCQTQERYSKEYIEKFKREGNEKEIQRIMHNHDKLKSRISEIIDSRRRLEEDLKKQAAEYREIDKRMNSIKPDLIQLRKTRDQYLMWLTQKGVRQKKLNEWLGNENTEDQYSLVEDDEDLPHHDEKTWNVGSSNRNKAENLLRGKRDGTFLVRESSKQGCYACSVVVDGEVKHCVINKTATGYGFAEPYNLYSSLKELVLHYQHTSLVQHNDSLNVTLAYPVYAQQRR
T7 sequence (P12931 whole entry, the tested form may be a part): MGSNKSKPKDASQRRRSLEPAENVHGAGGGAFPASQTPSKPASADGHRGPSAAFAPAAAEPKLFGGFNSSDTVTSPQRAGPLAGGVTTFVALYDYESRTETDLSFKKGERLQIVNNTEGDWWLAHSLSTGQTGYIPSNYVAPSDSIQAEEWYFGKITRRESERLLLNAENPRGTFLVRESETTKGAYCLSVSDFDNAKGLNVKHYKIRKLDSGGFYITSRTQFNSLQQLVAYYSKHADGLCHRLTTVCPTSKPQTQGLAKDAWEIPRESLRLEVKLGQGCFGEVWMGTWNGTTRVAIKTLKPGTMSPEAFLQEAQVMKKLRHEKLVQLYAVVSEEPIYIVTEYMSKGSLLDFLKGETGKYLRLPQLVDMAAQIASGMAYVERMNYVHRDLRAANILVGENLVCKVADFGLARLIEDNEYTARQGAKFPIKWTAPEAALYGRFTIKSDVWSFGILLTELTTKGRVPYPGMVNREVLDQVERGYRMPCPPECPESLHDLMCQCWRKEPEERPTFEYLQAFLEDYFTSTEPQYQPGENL
T4 sequence (O75460 whole entry): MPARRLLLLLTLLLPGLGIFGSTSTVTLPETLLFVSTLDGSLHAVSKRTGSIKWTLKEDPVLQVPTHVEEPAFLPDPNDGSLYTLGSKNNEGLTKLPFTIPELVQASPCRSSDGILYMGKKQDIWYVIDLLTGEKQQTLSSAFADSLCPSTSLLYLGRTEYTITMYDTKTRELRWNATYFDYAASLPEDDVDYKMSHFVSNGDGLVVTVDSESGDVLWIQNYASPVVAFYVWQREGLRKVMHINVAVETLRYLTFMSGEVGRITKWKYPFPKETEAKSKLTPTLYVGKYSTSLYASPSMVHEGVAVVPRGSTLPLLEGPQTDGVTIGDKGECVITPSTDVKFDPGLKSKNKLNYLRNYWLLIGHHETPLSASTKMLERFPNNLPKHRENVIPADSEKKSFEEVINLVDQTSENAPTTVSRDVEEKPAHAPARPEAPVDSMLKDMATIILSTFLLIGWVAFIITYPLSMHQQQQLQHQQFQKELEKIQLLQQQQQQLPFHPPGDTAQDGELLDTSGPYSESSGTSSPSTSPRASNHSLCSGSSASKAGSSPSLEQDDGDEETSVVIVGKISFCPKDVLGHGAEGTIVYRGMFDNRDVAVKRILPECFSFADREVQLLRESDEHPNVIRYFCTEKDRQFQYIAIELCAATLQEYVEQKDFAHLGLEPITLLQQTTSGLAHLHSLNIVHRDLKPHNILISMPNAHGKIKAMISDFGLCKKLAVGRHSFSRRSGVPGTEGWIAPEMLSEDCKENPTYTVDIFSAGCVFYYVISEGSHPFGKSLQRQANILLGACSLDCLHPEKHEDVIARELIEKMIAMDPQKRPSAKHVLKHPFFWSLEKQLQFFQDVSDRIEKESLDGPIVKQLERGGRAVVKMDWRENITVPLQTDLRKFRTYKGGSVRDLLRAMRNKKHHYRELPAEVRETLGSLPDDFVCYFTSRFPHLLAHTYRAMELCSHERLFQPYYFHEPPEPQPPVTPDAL
Sequence of Wee1(h) (P30291 whole entry): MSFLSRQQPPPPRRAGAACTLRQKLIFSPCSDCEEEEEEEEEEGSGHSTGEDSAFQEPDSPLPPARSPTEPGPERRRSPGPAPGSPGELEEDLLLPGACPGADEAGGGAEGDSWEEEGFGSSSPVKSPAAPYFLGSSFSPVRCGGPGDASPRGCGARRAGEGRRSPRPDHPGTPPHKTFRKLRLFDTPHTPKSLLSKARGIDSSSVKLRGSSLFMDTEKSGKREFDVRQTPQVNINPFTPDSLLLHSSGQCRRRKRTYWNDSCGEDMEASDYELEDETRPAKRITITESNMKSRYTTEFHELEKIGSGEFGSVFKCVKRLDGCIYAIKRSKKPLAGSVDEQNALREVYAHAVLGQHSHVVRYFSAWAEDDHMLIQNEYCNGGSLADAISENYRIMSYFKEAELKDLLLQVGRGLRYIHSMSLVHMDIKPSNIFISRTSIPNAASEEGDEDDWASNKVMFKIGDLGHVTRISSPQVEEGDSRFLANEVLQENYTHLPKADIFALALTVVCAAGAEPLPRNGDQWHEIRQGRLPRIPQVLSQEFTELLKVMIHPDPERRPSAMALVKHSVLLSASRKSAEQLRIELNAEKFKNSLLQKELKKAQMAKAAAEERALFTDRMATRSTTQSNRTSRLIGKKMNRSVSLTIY
T1 sequence (P49841 whole entry): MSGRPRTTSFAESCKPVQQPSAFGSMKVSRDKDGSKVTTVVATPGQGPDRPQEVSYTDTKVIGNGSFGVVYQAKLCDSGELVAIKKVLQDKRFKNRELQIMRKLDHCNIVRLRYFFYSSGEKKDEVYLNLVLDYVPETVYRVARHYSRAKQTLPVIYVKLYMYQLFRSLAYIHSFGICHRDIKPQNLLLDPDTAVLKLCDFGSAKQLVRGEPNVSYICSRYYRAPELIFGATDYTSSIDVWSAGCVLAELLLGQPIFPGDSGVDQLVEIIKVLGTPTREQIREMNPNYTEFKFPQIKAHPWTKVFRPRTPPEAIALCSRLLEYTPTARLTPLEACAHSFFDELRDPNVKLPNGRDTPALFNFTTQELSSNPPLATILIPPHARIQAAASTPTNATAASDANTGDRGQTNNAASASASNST
T3 sequence (P48729 whole entry): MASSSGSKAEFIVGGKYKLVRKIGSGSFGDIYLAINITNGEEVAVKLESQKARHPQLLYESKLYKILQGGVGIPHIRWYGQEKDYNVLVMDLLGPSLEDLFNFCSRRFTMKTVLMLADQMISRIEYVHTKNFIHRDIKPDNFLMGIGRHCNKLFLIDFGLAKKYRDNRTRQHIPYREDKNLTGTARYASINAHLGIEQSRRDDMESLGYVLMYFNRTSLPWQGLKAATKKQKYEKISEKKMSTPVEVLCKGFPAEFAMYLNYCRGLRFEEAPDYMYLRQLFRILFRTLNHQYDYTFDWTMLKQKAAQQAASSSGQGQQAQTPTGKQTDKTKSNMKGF

## COc1ccc2ncnc(Nc3cccc(F)c3)c2c1 [5ay, N-(3-Fluorophenyl)-6-Methoxy-4-Quinazolinamine]
Wee1(h); [2]
  remaining activity at 10 µM: 102%
GSK3β(h); [2]
  remaining activity at 10 µM: 76%
ZAK(h); [2]
  remaining activity at 10 µM: 61%
CK1α(h); [2]
  remaining activity at 10 µM: 100%
IRE1(h); [2]
  remaining activity at 10 µM: 83%
BrSK2(h); [2]
  remaining activity at 10 µM: 42%
PKD2(h); [2]
  remaining activity at 10 µM: 77%
Src(1-530)(h); [2]
  remaining activity at 10 µM: 90%
[1]; [2]
  remaining activity at 10 µM: 99%

## Fc1ccc(CNc2ncnc3ccc(F)cc23)cc1 [5aa, 6-Fluoro-N-(4-fluorobenzyl)-4-Quinazolinamine]
Wee1(h); [3]
  remaining activity at 10 µM: 109%
GSK3β(h); [3]
  remaining activity at 10 µM: 85%
ZAK(h); [3]
  remaining activity at 10 µM: 70%
CK1α(h); [3]
  remaining activity at 10 µM: 76%
IRE1(h); [3]
  remaining activity at 10 µM: 99%
BrSK2(h); [3]
  remaining activity at 10 µM: 79%
PKD2(h); [3]
  remaining activity at 10 µM: 106%
Src(1-530)(h); [3]
  remaining activity at 10 µM: 107%
[1]; [3]
  remaining activity at 10 µM: 102%

## Fc1ccc2ncnc(NCCc3ccc(Cl)cc3)c2c1 [5at, N-[2-(4-Chlorophenyl)Ethyl]-6-Fluoro-4-Quinazolinamine]
Wee1(h); [4]
  remaining activity at 10 µM: 89%
GSK3β(h); [4]
  remaining activity at 10 µM: 97%
ZAK(h); [4]
  remaining activity at 10 µM: 72%
CK1α(h); [4]
  remaining activity at 10 µM: 89%
IRE1(h); [4]
  remaining activity at 10 µM: 88%
BrSK2(h); [4]
  remaining activity at 10 µM: 71%
PKD2(h); [4]
  remaining activity at 10 µM: 76%
Src(1-530)(h); [4]
  remaining activity at 10 µM: 81%
[1]; [4]
  remaining activity at 10 µM: 101%

## Fc1ccc(CCNc2ncnc3ccc(F)cc23)cc1 [5as, 6-Fluoro-N-[2-(4-Fluorophenyl)Ethyl]-4-Quinazolinamine]
Wee1(h); [5]
  remaining activity at 10 µM: 114%
GSK3β(h); [5]
  remaining activity at 10 µM: 91%
ZAK(h); [5]
  remaining activity at 10 µM: 61%
CK1α(h); [5]
  remaining activity at 10 µM: 98%
IRE1(h); [5]
  remaining activity at 10 µM: 89%
BrSK2(h); [5]
  remaining activity at 10 µM: 65%
PKD2(h); [5]
  remaining activity at 10 µM: 74%
Src(1-530)(h); [5]
  remaining activity at 10 µM: 101%
[1]; [5]
  remaining activity at 10 µM: 98%
